Results reported in article PMC10525924, “Engineering and Purification of Microcin C7 Variants Resistant to Trypsin and Analysis of Their Biological Activity” (Antibiotics, 2023).
Values after ≈ are worked out from the molar mass of the structure shown. Where a SMILES comes first, the peptide text is derived from it.

Assays:
Yej^+rimL^− strain [1] = assay: organism not typed; type: cell-based; conditions: for Diameters of the inhibition zones, Trypsin-Treated Group, Yej^+rimL^− / bacteriostatic activity after trypsin treatment, Yej^+rimL^−: supernatant treated with trypsin 50 μg/mL, 37 °C, 3 h; for Diameters of the inhibition zones, Trypsin-Treated Group, Yej^+rimL^−: pH 6.8, 37 °C 24 h; for Diameters of the inhibition zones, Trypsin-Treated Group, Yej^+rimL^− / bacteriostatic activity after trypsin treatment, Yej^+rimL^− / Diameters of the inhibition zones, Trypsin-Untreated Group, Yej^+rimL^−: agar diffusion; for Diameters of the inhibition zones, Trypsin-Treated Group, Yej^+rimL^− / Diameters of the inhibition zones, Trypsin-Untreated Group, Yej^+rimL^−: dash = no zone; for Diameters of the inhibition zones, Trypsin-Untreated Group, Yej^+rimL^−: 200 μL fermentation supernatant, 1 × 10^5 CFU/mL, 4 °C 1 h then 37 °C 24 h, chloramphenicol 100 μL of 0.25 μg/mL
From the text: To analyze the antimicrobial ability of the variants, we measured the inhibition zones of all 21 variants by the agar diffusion method. The peptide moiety of McC was recognized by a YejABEf-peptide transporter. The rimL contains an acetyltransferase domain homologous to MccE which can detoxify and provide resistance to McC [17]. The overexpression of the YejABEF gene cluster and rimL gene knockout made the strain hypersensitive to McC. Therefore, the Yej^+rimL^− strain was selected as the sensitive indicator bacterial strain.
(§1) The pH was adjusted to 6.8.
(§2) The fermentation supernatants and pure products were used to characterize the bacteriostatic effects of McC variants by the agar diffusion and microdilution methods. Yej^+rimL^− and E. coli K88 indicator bacteria were applied. The serotype of E. coli K88 was O149:K91, K88ac, a clinically isolated strain, and provided by the College of Veterinary Medicine, China Agricultural University. The indicated bacteria were diluted to 1 × 10^5 CFU/mL and added to plate medium cooled to 50 °C. Two hundred microliters of supernatants were added to each dish, and diffusion was performed at 4 °C for 1 h. After incubation at 37 °C for 24 h, the diameters of the inhibition zones were determined. One hundred microliters of 0.25 μg/mL chloramphenicol was used as a control. The MICs of the pure McC variants were determined by microdilution in a sterilized 96-well microplate. The McC variants were serially diluted 2 times in 96-well microplates with LB medium. The concentrations of the McC variants ranged from 0.125 to 100 µg/mL. Each well was inoculated with 10 μL of overnight bacterial culture at a concentration of 1.0 × 10^5 CFU/mL and incubated at 37 °C for 24 h. A microplate reader was used to automatically observe changes in absorbance at 600 nm in order to monitor bacterial growth. A positive control group (including inoculated medium) and a negative control group (with medium only) were included. The MIC was determined as the lowest concentration of McC variant that inhibited bacterial growth (preventing an increase in the absorbance reading). All tests were performed in triplicate.

E. coli K88 = assay: microbe, parasite or virus in culture; type: cell-based; conditions: for Diameters of the inhibition zones, Trypsin-Untreated Group, K88: 200 μL fermentation supernatant, 1 × 10^5 CFU/mL, 4 °C 1 h then 37 °C 24 h, chloramphenicol 100 μL of 0.25 μg/mL
Description: as §1, §2

[2] = HPLC retention time according to hydrophobicity; type: physicochemical; conditions: chromatographic, C18 5 μm 9.4 × 250 mm; A 0.1% trichloroacetic acid, B 0.1% trichloroacetic acid with 90% acetonitrile; linear 5% B to 50% B; 1 mL/min; 35 °C; 280 nm; varies according to hydrophobicity
Description: To find the separation peaks of the variants, wildtype McC and blank control fermentation broth samples were tested by HPLC. The separation peaks with obvious differences (those with retention times of 11 min and 17 min) were purified and the antimicrobial activity was determined. […] Therefore, the molecular weight was further analyzed by mass spectrometry, and the separation peak at approximately 17 min was confirmed to be that of the desired purified McC. Since the mutations in this study involved only one amino acid and had few effects on the properties of the peptides, we predicted that the separation peaks of the variants should fluctuate around approximately 17 min according to their hydrophobicity. […] The purity of the purified variants was determined by HPLC to be greater than 80% (Table 3).
The lyophilized supernatants were dissolved in deionized water, filtered through 0.22 μm aqueous-phase filter membranes, and purified by high-performance liquid chromatography (HPLC, Agilent Technologies Inc., Palo Alto, CA, USA) with C18 column (5 μm 9.4 × 250 mm, Agilent Technologies Inc., Palo Alto, CA, USA). The mobile phase was composed of 0.1% (v/v) trichloroacetic acid (solvent A) and 0.1% (v/v) trichloroacetic acid with 90% (v/v) acetonitrile (solvent B). A linear gradient from 95% A/5% B to 50% A/50% B was used with a flow rate of 1 mL/min, a sample volume of 10 μL, a column temperature of 35 °C, and a detection wavelength of 280 nm. Electrospray ionization mass spectrometry (ESI-MS) was used to compare the McC variant masses with the expected masses. The relationships between the relative abundances and the mass-to-charge ratios (m/z) of the ions were determined to confirm the identities of the experimentally produced McC variants.

[3] = Remaining amount by RP-HPLC after pepsin treatment; type: in vitro ADME; conditions: isolated enzyme pepsin; pepsin treated for 3 h; read-out RP-HPLC; Table S2
Description: (§3) To test whether the variants were tolerant to trypsin or other digestive enzymes, the amount of the remaining McC and its analogues remaining was determined by RP-HPLC after trypsin, pepsin, and chymotrypsin treated for 3 h (Table S2), and the inhibition zones of trypsin-treated variants were tested using the same method (Table 2).

Yej^+rimL^− strain [4] = type: cell-based; conditions: HPLC-purified variants; microdilution in LB, 96-well; 0.125 to 100 µg/mL; 1.0 × 10^5 CFU/mL; 37 °C 24 h; absorbance 600 nm; triplicate
Description: To accurately characterize the bacteriostatic abilities of the variants, the MICs of the pure McC variants toward the McCsensitive strain Yej^+rimL^− were determined. The MICs of all variants were lower than that of wild-type McC. From smallest to largest MIC, the above five variants were in the following order: R2A, R2T, R2Q, R2S, and R2H. […] Although the diameter of the inhibitory zone of R2M was smaller than those of the above five variants, the bacteriostatic ability of R2M was second only to R2T/R2Q, and the MIC was 50 μg/mL.
as §2

[5] = Remaining amount by RP-HPLC after chymotrypsin treatment; type: in vitro ADME; conditions: isolated enzyme chymotrypsin; chymotrypsin treated for 3 h; read-out RP-HPLC; Table S2
Description: as §3

| SMILES | zone of inhibition at 0.25 µg/mL (Yej^+rimL^− strain [1]; read-out: Diameters of the inhibition zones, Trypsin-Untreated Group, Yej^+rimL^−) [mm] | Diameters of the inhibition zones, Trypsin-Treated Group, Yej^+rimL^− (Yej^+rimL^− strain [1]) [mm] | zone of inhibition at 0.25 µg/mL (E. coli K88; Escherichia coli, K88, read-out: Diameters of the inhibition zones, Trypsin-Untreated Group, K88) [mm] | Diameters of the inhibition zones, Trypsin-Treated Group, K88 (E. coli K88; supernatant treated with trypsin 50 μg/mL, 37 °C, 3 h, pH 6.8, agar diffusion, 37 °C 24 h, dash = no zone) [mm] | Retention Time [2] [min] | bacteriostatic activity after trypsin treatment, Yej^+rimL^− (Yej^+rimL^− strain [1]) | Diameters of the inhibition zones, Trypsin-Untreated Group, Yej^+rimL^− (Yej^+rimL^− strain [1]) [mm] | remaining at 3 h [3] [%] | MIC (Yej^+rimL^− strain [4]) [µg/mL] | remaining at 3 h [5] [%] | Diameters of the inhibition zones, Trypsin-Untreated Group, K88 (E. coli K88; agar diffusion, dash = no zone) [mm] |
| --- | --- | --- | --- | --- | --- | --- | --- | --- | --- | --- | --- |
| O=C(N[C@H](CO)[C@H](O)c1ccc([N+](=O)[O-])cc1)C(Cl)Cl [Chloramphenicol, reference compound] | 23.4 | 20.96 | 23.6 | 22.79 |  |  |  |  |  |  |  |
| CSCC[C@H](NC=O)C(=O)N[C@@H](CC(=O)O)C(=O)N[C@H](C(=O)NCC(=O)N[C@@H](CC(N)=O)C(=O)N[C@@H](C)C(=O)N[C@@H](CC(=O)O)C(=O)NP(=O)(OCCCN)OC[C@H]1O[C@@H](n2cnc3c(N)ncnc32)[C@H](O)[C@@H]1O)[C@@H](C)O (some centres unmarked) [R2D] (HELM PEPTIDE1{[O=C[*:2]].M.D.T.G.N.A.[NCCCOP(=O)(NC(=O)[C@H](CC(=O)O)N[*:1])OC[C@H]1O[C@@H](n2cnc3c(N)ncnc32)[C@H](O)[C@@H]1O]}$$$$V2.0) |  | 14.11 |  |  | 17.625 | exhibited antibacterial effects | 17.71 | 83.9 ± 1.42 | >100 | 42.4 ± 1.07 |  |
| CSCC[C@H](NC=O)C(=O)N[C@@H](Cc1ccccc1)C(=O)N[C@H](C(=O)NCC(=O)N[C@@H](CC(N)=O)C(=O)N[C@@H](C)C(=O)N[C@@H](CC(=O)O)C(=O)NP(=O)(OCCCN)OC[C@H]1O[C@@H](n2cnc3c(N)ncnc32)[C@H](O)[C@@H]1O)[C@@H](C)O (some centres unmarked) [R2F] (HELM PEPTIDE1{[O=C[*:2]].M.F.T.G.N.A.[NCCCOP(=O)(NC(=O)[C@H](CC(=O)O)N[*:1])OC[C@H]1O[C@@H](n2cnc3c(N)ncnc32)[C@H](O)[C@@H]1O]}$$$$V2.0) |  | 10.95 |  |  |  |  | 13.05 | 82.3 ± 0.94 |  | 41.1 ± 0.98 | 14.34 |
| CSCC[C@H](NC=O)C(=O)NCC(=O)N[C@H](C(=O)NCC(=O)N[C@@H](CC(N)=O)C(=O)N[C@@H](C)C(=O)N[C@@H](CC(=O)O)C(=O)NP(=O)(OCCCN)OC[C@H]1O[C@@H](n2cnc3c(N)ncnc32)[C@H](O)[C@@H]1O)[C@@H](C)O (some centres unmarked) [R2G] (HELM PEPTIDE1{[O=C[*:2]].M.G.T.G.N.A.[NCCCOP(=O)(NC(=O)[C@H](CC(=O)O)N[*:1])OC[C@H]1O[C@@H](n2cnc3c(N)ncnc32)[C@H](O)[C@@H]1O]}$$$$V2.0) |  | 14.15 |  |  | 17.253 | exhibited antibacterial effects | 18.86 | 85.89 ± 0.79 | >100 | 45.6 ± 1.31 |  |
| CSCC[C@H](NC=O)C(=O)N[C@@H](CCCCN)C(=O)N[C@H](C(=O)NCC(=O)N[C@@H](CC(N)=O)C(=O)N[C@@H](C)C(=O)N[C@@H](CC(=O)O)C(=O)NP(=O)(OCCCN)OC[C@H]1O[C@@H](n2cnc3c(N)ncnc32)[C@H](O)[C@@H]1O)[C@@H](C)O (some centres unmarked) [R2K] (HELM PEPTIDE1{[O=C[*:2]].M.K.T.G.N.A.[NCCCOP(=O)(NC(=O)[C@H](CC(=O)O)N[*:1])OC[C@H]1O[C@@H](n2cnc3c(N)ncnc32)[C@H](O)[C@@H]1O]}$$$$V2.0) |  | 0 |  |  |  |  | 20.91 | 87.69 ± 0.68 |  | 41.4 ± 0.73 | 16.95 |
| CSCC[C@H](NC=O)C(=O)N[C@@H](CC(C)C)C(=O)N[C@H](C(=O)NCC(=O)N[C@@H](CC(N)=O)C(=O)N[C@@H](C)C(=O)N[C@@H](CC(=O)O)C(=O)NP(=O)(OCCCN)OC[C@H]1O[C@@H](n2cnc3c(N)ncnc32)[C@H](O)[C@@H]1O)[C@@H](C)O (some centres unmarked) [R2L] (HELM PEPTIDE1{[O=C[*:2]].M.L.T.G.N.A.[NCCCOP(=O)(NC(=O)[C@H](CC(=O)O)N[*:1])OC[C@H]1O[C@@H](n2cnc3c(N)ncnc32)[C@H](O)[C@@H]1O]}$$$$V2.0) |  | 0 |  |  | 19.425 |  | 14.40 | 79.25 ± 0.62 | >100 | 39.2 ± 0.75 |  |
| CSCC[C@H](NC=O)C(=O)N[C@H](C(=O)N[C@H](C(=O)NCC(=O)N[C@@H](CC(N)=O)C(=O)N[C@@H](C)C(=O)N[C@@H](CC(=O)O)C(=O)NP(=O)(OCCCN)OC[C@H]1O[C@@H](n2cnc3c(N)ncnc32)[C@H](O)[C@@H]1O)[C@@H](C)O)C(C)C (some centres unmarked) [R2V] (HELM PEPTIDE1{[O=C[*:2]].M.V.T.G.N.A.[NCCCOP(=O)(NC(=O)[C@H](CC(=O)O)N[*:1])OC[C@H]1O[C@@H](n2cnc3c(N)ncnc32)[C@H](O)[C@@H]1O]}$$$$V2.0) |  | 14.62 |  |  | 18.151 | exhibited antibacterial effects | 21.34 | 79 ± 1.24 | 50 (≈ 44.6 µM) | 39.1 ± 1.05 |  |
